Test results: patent US20040224958A1, “Pyridopyrimidinone derivatives for treatment of neurodegenerative disease” (priority 2000, published 2004)
Like-named read-outs stand apart in the source and are kept apart here.

How the values were obtained:
cdk4/D = cdk4/D (Homo sapiens, UniProt P11802); assay: Cyclin-Dependent Kinase 4 (cdk4) Assay; type: biochemical; conditions: read-out: cdk4/D IC50
Cdk5/p25 = Cdk5/p25 (Homo sapiens, UniProt Q00535); assay: Cyclin-Dependent Kinase 5 High Throughput Screening (cdk5-HTS) Assay; type: biochemical; conditions: high throughput screen
In short: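 IC50 determined from 33P incorporation into GST-RbCOOH captured on glutathione plates and read by scintillation counting. Reaction: 1.0 μg/mL Cdk5/p25, 20 μM [γ33P]ATP, pH 7.4 Tris buffer with MgCl2 and DTT, 30 min at room temperature, stopped with EDTA.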

cdk2/cyclinE = cdk2/cyclinE (Homo sapiens, UniProt P24941); assay: Cyclin-Dependent Kinase Assay cdk2/cyclinE
cdk2/cyclinA = cdk2/cyclinA (Homo sapiens, UniProt P24941); assay: Cyclin-Dependent Kinase Assay cdk2/cyclinA
cdc2/cyclinB = cdc2/cyclinB (Homo sapiens, UniProt P06493); assay: Cyclin-Dependent Kinase Assay cdc2/cyclinB
Chain of cdc2/cyclinB (P06493 whole entry): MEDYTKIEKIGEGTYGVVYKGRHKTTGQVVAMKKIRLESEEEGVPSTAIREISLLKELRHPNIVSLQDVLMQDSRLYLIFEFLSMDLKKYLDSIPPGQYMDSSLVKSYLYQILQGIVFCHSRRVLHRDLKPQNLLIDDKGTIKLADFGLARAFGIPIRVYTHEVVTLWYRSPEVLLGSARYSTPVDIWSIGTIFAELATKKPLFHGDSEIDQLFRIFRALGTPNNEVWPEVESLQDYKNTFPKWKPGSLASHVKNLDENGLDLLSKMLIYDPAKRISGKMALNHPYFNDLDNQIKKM
Chain of cdc2/cyclinB (P14635 whole entry, further chain): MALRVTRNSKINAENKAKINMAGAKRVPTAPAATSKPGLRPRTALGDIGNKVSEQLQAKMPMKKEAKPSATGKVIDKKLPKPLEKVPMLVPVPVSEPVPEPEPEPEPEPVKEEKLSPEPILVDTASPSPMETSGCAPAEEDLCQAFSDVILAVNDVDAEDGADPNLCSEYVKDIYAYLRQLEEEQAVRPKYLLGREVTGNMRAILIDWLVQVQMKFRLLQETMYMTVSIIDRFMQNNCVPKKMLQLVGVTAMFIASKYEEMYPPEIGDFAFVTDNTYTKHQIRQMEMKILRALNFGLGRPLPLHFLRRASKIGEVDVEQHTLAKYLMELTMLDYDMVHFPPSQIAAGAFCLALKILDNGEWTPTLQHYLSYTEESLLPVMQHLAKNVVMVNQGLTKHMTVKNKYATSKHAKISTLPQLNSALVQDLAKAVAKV

Chain of cdk4/D (P11802 whole entry): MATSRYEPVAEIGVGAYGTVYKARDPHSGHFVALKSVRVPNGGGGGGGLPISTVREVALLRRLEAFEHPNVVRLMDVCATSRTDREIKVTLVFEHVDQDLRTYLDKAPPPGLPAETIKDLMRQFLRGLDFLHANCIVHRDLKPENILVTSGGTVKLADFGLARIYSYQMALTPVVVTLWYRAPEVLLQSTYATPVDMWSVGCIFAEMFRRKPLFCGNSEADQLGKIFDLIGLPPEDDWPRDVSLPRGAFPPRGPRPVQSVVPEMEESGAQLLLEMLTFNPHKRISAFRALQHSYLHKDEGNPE
Chain of cdk4/D (P24385 whole entry, further chain): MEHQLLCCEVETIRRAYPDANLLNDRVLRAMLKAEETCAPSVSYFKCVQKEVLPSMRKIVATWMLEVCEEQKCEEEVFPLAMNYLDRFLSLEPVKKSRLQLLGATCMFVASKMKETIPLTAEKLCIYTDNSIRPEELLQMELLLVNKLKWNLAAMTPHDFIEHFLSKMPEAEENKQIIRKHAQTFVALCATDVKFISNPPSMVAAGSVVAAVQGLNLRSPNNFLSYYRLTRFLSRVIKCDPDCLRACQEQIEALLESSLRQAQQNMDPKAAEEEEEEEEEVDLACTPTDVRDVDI

IC50 (cdk4/D) [nM] | IC50 (Cdk5/p25) [nM] | IC50 (cdk2/cyclinE; cdk2/E IC50) [nM] | IC50 (cdk2/cyclinA; cdk2/A IC50) [nM] | IC50 (cdc2/cyclinB) [nM] | SMILES | IC50 (cdk2/cyclinE; read-out: cdk2/E IC50) [nM] | IC50 (cdk2/cyclinA; read-out: cdk2/A IC50) [nM] | IC50 (cdc2/cyclinB; read-out: cdk1/B IC50) [nM]
98 | 26 | 64 | 240 | 190 | CCC(CC)n1c(=O)ccc2cnc(Nc3ccc(F)c(F)c3)nc21 [Example 509, 2-(3,4-Difluoro-phenylamino)-8-(I-ethyl-propyl)-8H-pyrido[2,3-d]pyrimidin-7-one] |  |  | 
1900 | 280 | 300 | 650 | 610 | CCCCn1c(=O)ccc2cnc(Nc3cc(F)cc(F)c3)nc21 [Example 404, 8-Butyl-2-(3,5-difluoro-phenylamino)-8H-pyrido[2,3-d]pyrimidin-7-one] |  |  | 
2240 | 124 | 494 | 1980 | 446 | CCC(CC)n1c(=O)ccc2cnc(Nc3ccc(Br)c(C(F)(F)F)c3)nc21 [Example 488, 2-(4-Bromo-3-trifluoromethyl-phenylamino)-8-(1-ethyl-propyl)-8H-pyrido[2,3-d]pyrimidin-7-one] |  |  | 
250 | 76 | 230 | 160 | 480 | CC(C)n1c(=O)ccc2cnc(Nc3ccc(C#N)cc3)nc21 [Example 433, 4-(8-Isopropyl-7-oxo-7,8-dihydro-pyrido[2,3-d]pyrimidin-2-ylamino)-benzonitrile] |  |  | 
31 | 32 | 24 | 35.5 | 82.5 | O=c1ccc2cnc(Nc3ccc4cn[nH]c4c3)nc2n1C1CCCC1 [Example 529, 8-Cyclopentyl-2-(1H-indazol-6-ylamino)-8H-pyrido[2,3-d]pyrimidin-7-one] |  |  | 
180 | 99 | 180 | 200 | 290 | O=c1ccc2cnc(Nc3cc(F)cc(F)c3)nc2n1C1CCCC1 [Example 548, 8-Cyclopentyl-2-(3,5-difluoro-phenylamino)-8H-pyrido[2,3-d]pyrimidin-7-one] |  |  | 
71.5 | 53 | 86.5 | 250 | 82 | CCCn1c(=O)ccc2cnc(Nc3ccc4[nH]ccc4c3)nc21 [Example 323, 2-(1H-Indol-5-ylamino)-8-propyl-8H-pyrido[2,3-d]pyrimidin-7-one] |  |  | 
1030 | 82.8 | 467 | 920 | 218 | CCC(CC)n1c(=O)ccc2cnc(Nc3ccc(Cl)c(C(F)(F)F)c3)nc21 [Example 486, 2-(4-Chloro-3-trifluoromethyl-phenylamino)-8-(1-ethyl-propyl)-8H-pyrido[2,3-d]pyrimidin-7-one] |  |  | 
14 | 13 | 49 | 170 | 62 | CCCn1c(=O)ccc2cnc(Nc3cccc(S(N)(=O)=O)c3)nc21 [Example 348, 3-(7-Oxo-8-propyl-7,8-dihydro-pyrido[2,3-d]pyrimidin-2-ylamino)-benzenesulfonamide] |  |  | 
130 | 18 | 29 | 56 | 62 | CCC(CC)n1c(=O)ccc2cnc(Nc3ccc4oc(=O)[nH]c4c3)nc21 [Example 517, 8-(1-Ethyl-propyl)-2-(2-oxo-2,3-dihydro-benzoxazol-5-ylamino)-8H-pyrido[2,3-d]pyrimidin-7-one] |  |  | 
2600 | 260 | 100 | 670 | 710 | O=c1ccc2cnc(Nc3cc(F)c(F)c(F)c3)nc2n1CC1CC1 [Example 588, 8-Cyclopropylmethyl-2-(3,4,5-trifluoro-phenylamino)-8H-pyrido[2,3-d]pyrimidin-7-one] |  |  | 
110 | 6.1 | 50 | 150 | 67 | CCC(C)n1c(=O)ccc2cnc(Nc3ccc4c(c3)CCCC4=O)nc21 (centres unmarked) [Example 470, 8-sec-Butyl-2-(5-oxo-5,6,7,8-tetrahydro-naphthalen-2-ylamino)-8H-pyrido[2,3-d]pyrimidin-7-one] |  |  | 
230 | 32 | 152 | 148 | 169 | O=c1[nH]c2cc(Nc3ncc4ccc(=O)n(C5CCCC5)c4n3)ccc2o1 [Example 554, 8-Cyclopentyl-2-(2-oxo-2,3-dihydro-benzoxazol-5-ylamino)-8H-pyrido[2,3-d]pyrimidin-7-one] |  |  | 
570 | 108 | 147 | 650 | 215 | CCC(CC)n1c(=O)ccc2cnc(Nc3ccc(O)cc3F)nc21 [Example 495, 8-(1-Ethyl-propyl)-2-(2-fluoro-4-hydroxy-phenylamino)-8H-pyrido[2,3-d]pyrimidin-7-one] |  |  | 
1700 | 29 | 100 | 280 | 150 | CCC(C)n1c(=O)ccc2cnc(Nc3ccc(F)c(C(F)(F)F)c3)nc21 (centres unmarked) [Example 458, 8-sec-Butyl-2-(4-fluoro-3-trifluoromethyl-phenylamino)-8H-pyrido[2,3-d]pyrimidin-7-one] |  |  | 
187 | 40.8 | 136 | 363 | 192 | CCC(CC)n1c(=O)ccc2cnc(Nc3ccc(C#N)cc3)nc21 [Example 484] |  |  | 
1780 | 124 | 970 | 1600 | 905 | COc1ccc(Nc2ncc3ccc(=O)n(CC(F)(F)F)c3n2)cc1OC [Example 600, 2-(3,4-Dimethoxy-phenylamino)-8-(2,2,2-trifluoro-ethyl)-8H-pyrido[2,3-d]pyrimidin-7-one] |  |  | 
1130 | 91.5 | 25.7 | 98.5 | 115 | CCCCn1c(=O)ccc2cnc(Nc3cc(Cl)c(O)c(Cl)c3)nc21 [Example 384, 8-Butyl-2-(3,5-dichloro-4-hydroxy-phenylamino)-8H-pyrido[2,3-d]pyrimidin-7-one] |  |  | 
85 | 88 | 200 | 160 | 140 | CCC(CC)n1c(=O)ccc2cnc(Nc3ccc(C(F)(F)F)cc3)nc21 [Example 526, 8-(1-Ethyl-propyl)-2-(4-trifluoromethyl-phenylamino)-8H-pyrido[2,3-d]pyrimidin-7-one] |  |  | 
120 | 23 | 82 | 350 | 85 | Cc1cc(C)cc(Nc2ncc3ccc(=O)n(C4CCCC4)c3n2)c1 [Example 544, 8-Cyclopentyl-2-(3,5-dimethyl-phenylamino)-8H-pyrido[2,3-d]pyrimidin-7-one] |  |  | 
620 | 23.5 | 90.7 | 200 | 83 | CCCCn1c(=O)ccc2cnc(Nc3ccc(OC)c(OC)c3)nc21 [Example 386, 8-Butyl-2-(3,4-dimethoxy-phenylamino)-8H-pyrido[2,3-d]pyrimidin-7-one] |  |  | 
270 | 48 | 170 | 340 | 570 | CCCn1c(=O)ccc2cnc(Nc3ccc(OC)c(F)c3)nc21 [Example 338, 2-(3-Fluoro-4-methoxy-phenylamino)-8-propyl-8H-pyrido[2,3-d]pyrimidin-7-one] |  |  | 
1390 | 64 | 415 | 1340 | 555 | O=c1ccc2cnc(Nc3ccc(Cl)c(C(F)(F)F)c3)nc2n1C1CCCC1 [Example 546, 2-(4-Chloro-3-trifluoromethyl-phenylamino)-8-cyclopentyl-8H-pyrido[2,3-d]pyrimidin-7-one] |  |  | 
420 | 410 | 460 | 490 | 650 | O=c1ccc2cnc(Nc3ccc(F)c([N+](=O)[O-])c3)nc2n1CC1CC1 [Example 576, 8-Cyclopropylmethyl-2-(4-fluoro-3-nitro-phenylamino)-8H-pyrido[2,3-d]pyrimidin-7-one] |  |  | 
475 | 59.8 | 122 | 446 | 204 | CCCCn1c(=O)ccc2cnc(Nc3ccc(OC)c(Cl)c3)nc21 [Example 365, 8-Butyl-2-(3-chloro-4-methoxy-phenylamino)-8H-pyrido[2,3-d]pyrimidin-7-one] |  |  | 
637 | 228 | 300 | 554 | 597 | CCCn1c(=O)ccc2cnc(Nc3ccc(C#N)cc3)nc21 [Example 322, 4-(7-Oxo-8-propyl-7,8-dihydro-pyrido[2,3-d]pyrimidin-2-ylamino)-benzonitrile] |  |  | 
950 | 26.5 | 330 | 530 | 340 | CCC(C)n1c(=O)ccc2cnc(Nc3ccc(Cl)c(C(F)(F)F)c3)nc21 (centres unmarked) [Example 468, 8-sec-Butyl-2-(4-chloro-3-trifluoromethyl-phenylamino)-8H-pyrido[2,3-d]pyrimidin-7-one] |  |  | 

SMILES | IC50 (cdk4/D) [nM] | IC50 (Cdk5/p25) [nM] | IC50 (cdk2/cyclinE; cdk2/E IC50) [nM] | IC50 (cdk2/cyclinA; cdk2/A IC50) [nM] | IC50 (cdc2/cyclinB) [nM] | IC50 (cdk2/cyclinE; read-out: cdk2/E IC50) [nM] | IC50 (cdk2/cyclinA; read-out: cdk2/A IC50) [nM] | IC50 (cdc2/cyclinB; read-out: cdk1/B IC50) [nM]
CCCCn1c(=O)ccc2cnc(Nc3ccc(C(N)=O)cc3)nc21 [Example 371, 4-(S-Butyl-7-oxo-7,8-dihydro-pyrido[2,3-d]pyrimidin-2-ylamino)-benzamide] | 331 | 234 |  |  |  | 286 | 699 | 372
